Assay: Evaluation of solubility of solute in solvents (visual inspection)
Assay type: physicochemical
Conditions: stirring at room temperature for 60 minutes; for Solubility, solvent PGME:EL = 7:3: PGME:EL = 7:3 volume ratio; for Solubility, solvent PGME:PGMEA = 7:3: PGME:PGMEA = 7:3 volume ratio
Protocol: Comparative compound 1 was added as a solute to each of the various solvents listed in Table 1 in an amount of 10% by mass, and mixed with the solvent by stirring at room temperature for 60 minutes. When 10% by mass of the solute was not fully dissolved in the solvent, the amount of the solute added was changed to 1% by mass, and 1% by mass of the solute was mixed with the solvent in the same manner as above.
The state of dissolution of the solute was visually inspected and evaluated as follows.
A: Even when the amount of the solute mixed with the solvent was 10% by mass, the solute was fully dissolved.
B: When the amount of the solute mixed with the solvent was 10% by mass, the solute was not fully dissolved and some of it remained undissolved, while when the amount of the solute mixed with the solvent was 1% by mass, the solute was fully dissolved.
C: Even when the amount of the solute mixed with the solvent was 1% by mass, the solute was not fully dissolved and some of it remained undissolved.
Experiments were conducted in the same manner as above, except for changing the solute from comparative compound 1 to other compounds listed in Table 1.

SMILES | Solubility, solvent PGME:EL = 7:3 | Solubility, solvent PGME:PGMEA = 7:3 | Solubility, solvent PGME
c1ccc(-c2c(-c3ccccc3)c(-c3ccccc3)c(-c3ccc(-c4c(-c5ccccc5)c(-c5ccccc5)c(-c5ccccc5)c(-c5ccccc5)c4-c4ccccc4)cc3)c(-c3ccccc3)c2-c2ccccc2)cc1 [Comparative compound 1, reference compound] | C (Even when the amount of the solute mixed with the solvent was 1% by mass, the solute was not fully dissolved and some of it remained undissolved.) | C (Even when the amount of the solute mixed with the solvent was 1% by mass, the solute was not fully dissolved and some of it remained undissolved.) | C (Even when the amount of the solute mixed with the solvent was 1% by mass, the solute was not fully dissolved and some of it remained undissolved.)
Oc1ccc(-c2c(-c3ccccc3)c(-c3ccccc3)c(-c3ccc(-c4c(-c5ccccc5)c(-c5ccccc5)c(-c5ccc(O)cc5)c(-c5ccc(O)cc5)c4-c4ccccc4)cc3)c(-c3ccccc3)c2-c2ccc(O)cc2)cc1 [G1] | A (Even when the amount of the solute mixed with the solvent was 10% by mass, the solute was fully dissolved.) | A (Even when the amount of the solute mixed with the solvent was 10% by mass, the solute was fully dissolved.) | A (Even when the amount of the solute mixed with the solvent was 10% by mass, the solute was fully dissolved.)
Oc1ccc(-c2c(-c3ccccc3)c(-c3ccccc3)c(-c3c4ccccc4c(-c4c(-c5ccccc5)c(-c5ccccc5)c(-c5ccc(O)cc5)c(-c5ccc(O)cc5)c4-c4ccccc4)c4ccccc34)c(-c3ccccc3)c2-c2ccc(O)cc2)cc1 [G2] | A (Even when the amount of the solute mixed with the solvent was 10% by mass, the solute was fully dissolved.) | A (Even when the amount of the solute mixed with the solvent was 10% by mass, the solute was fully dissolved.) | A (Even when the amount of the solute mixed with the solvent was 10% by mass, the solute was fully dissolved.)
Oc1ccc(-c2c(-c3ccccc3)cc(-c3ccc(-c4cc(-c5ccccc5)c(-c5ccc(O)cc5)c(-c5ccc(O)cc5)c4-c4ccccc4)cc3)c(-c3ccccc3)c2-c2ccc(O)cc2)cc1 [G3] | A (Even when the amount of the solute mixed with the solvent was 10% by mass, the solute was fully dissolved.) | A (Even when the amount of the solute mixed with the solvent was 10% by mass, the solute was fully dissolved.) | A (Even when the amount of the solute mixed with the solvent was 10% by mass, the solute was fully dissolved.)
Oc1ccc(-c2c(-c3ccc(O)cc3)c(-c3ccc(O)cc3)c(-c3ccc(O)cc3)c(-c3ccc(O)cc3)c2-c2ccc(O)cc2)cc1 [G5] | A (Even when the amount of the solute mixed with the solvent was 10% by mass, the solute was fully dissolved.) | A (Even when the amount of the solute mixed with the solvent was 10% by mass, the solute was fully dissolved.) | A (Even when the amount of the solute mixed with the solvent was 10% by mass, the solute was fully dissolved.)
Oc1ccc(-c2c(-c3ccccc3)c(-c3ccccc3)c(-c3ccc(-c4ccc(-c5c(-c6ccccc6)c(-c6ccccc6)c(-c6ccc(O)cc6)c(-c6ccc(O)cc6)c5-c5ccccc5)cc4)cc3)c(-c3ccccc3)c2-c2ccc(O)cc2)cc1 [G6] | A (Even when the amount of the solute mixed with the solvent was 10% by mass, the solute was fully dissolved.) | A (Even when the amount of the solute mixed with the solvent was 10% by mass, the solute was fully dissolved.) | A (Even when the amount of the solute mixed with the solvent was 10% by mass, the solute was fully dissolved.)
Oc1ccc(-c2c(-c3ccccc3)c(-c3ccccc3)c(-c3c(-c4ccccc4)c(-c4c(-c5ccccc5)c(-c5ccccc5)c(-c5ccc(O)cc5)c(-c5ccc(O)cc5)c4-c4ccccc4)c(-c4ccccc4)c(-c4c(-c5ccccc5)c(-c5ccccc5)c(-c5ccc(O)cc5)c(-c5ccc(O)cc5)c4-c4ccccc4)c3-c3ccccc3)c(-c3ccccc3)c2-c2ccc(O)cc2)cc1 [G7] | B (When the amount of the solute mixed with the solvent was 10% by mass, the solute was not fully dissolved and some of it remained undissolved, while when the amount of the solute mixed with the solvent was 1% by mass, the solute was fully dissolved.) | B (When the amount of the solute mixed with the solvent was 10% by mass, the solute was not fully dissolved and some of it remained undissolved, while when the amount of the solute mixed with the solvent was 1% by mass, the solute was fully dissolved.) | A (Even when the amount of the solute mixed with the solvent was 10% by mass, the solute was fully dissolved.)
Nc1ccc(-c2c(-c3ccccc3)c(-c3ccccc3)c(-c3ccccc3)c(-c3ccccc3)c2-c2ccc(N)cc2)cc1 [G8] | A (Even when the amount of the solute mixed with the solvent was 10% by mass, the solute was fully dissolved.) | A (Even when the amount of the solute mixed with the solvent was 10% by mass, the solute was fully dissolved.) | A (Even when the amount of the solute mixed with the solvent was 10% by mass, the solute was fully dissolved.)
COc1ccc(-c2c(-c3ccccc3)c(-c3ccccc3)c(-c3ccc(-c4c(-c5ccccc5)c(-c5ccccc5)c(-c5ccc(OC)cc5)c(-c5ccc(OC)cc5)c4-c4ccccc4)cc3)c(-c3ccccc3)c2-c2ccc(OC)cc2)cc1 [Intermediate G0, reference compound] | C (Even when the amount of the solute mixed with the solvent was 1% by mass, the solute was not fully dissolved and some of it remained undissolved.) | C (Even when the amount of the solute mixed with the solvent was 1% by mass, the solute was not fully dissolved and some of it remained undissolved.) | C (Even when the amount of the solute mixed with the solvent was 1% by mass, the solute was not fully dissolved and some of it remained undissolved.)
